Read-outs that look alike come from different tables or passages of the source.
Tests used:
[1] = Animal parameters (food, body weight, liver weight, mortality) in rats; assay type: in vivo, male Sprague-Dawley rats; conditions: 4 days; for mortality at 96 h: in vivo, po, read-out: mortality (deaths per group); for mortality at 96 h / body wt., percent of control / lw/bw (liver weight/body weight), percent of control: rat
From the text: (§1) A typical experiment consisted of 4-6 groups of rats (N=5 per group) with 1 group being a control which received no MDL compound and the other groups being treated with 0.3% MDL compound. Some of the compounds were either repeated at 0.3% or evaluated again at the lower dose of 0.1%. Male Sprague-Dawley rats, 50-100 g, (Harlan Laboratories, Indianapolis, Ind.) were housed in groups of 5, fed ad libitum water and Purina Rodent chow (#5002) with or without MDL compound as a dietary admixture for 4 days. Dietary admixtures (0.3%) were made by mixing 1.2 grams of an MDL compound with 400 grams of Purina rodent chow (#5002). The MDL compound was mixed with approximately 50 grams of food using a mortar and pestle. This was added to the remainder of the food and mixed for 3 hours on a rotary mixer. In the morning of day 5, non-fasted rats were anesthetized with carbon dioxide, and blood was collected by cardiac puncture. Rats were sacrificed by cervical dislocation. Body weights and liver weights were recorded in grams. Food consumption was recorded as grams.cndot.day^-1.cndot.rat^-1. Deaths were recorded as mortality. Aliquots of fresh serum were used for clinical chemistries, thiobarbituric acid reactive substances (TBARS) and conjugated diene measurements. Aliquots of serum (~0.5mL) and whole livers were frozen at -20° C. for compound and metabolite concentration determination at a later time.

oxidation of lipids = test: Conjugated diene determination, rat serum; assay type: in vivo, male Sprague-Dawley rats; conditions: pooled rat serum, 4 days, mean of 2 determinations
From the text: as §1
Conjugated diene lag phase is another indicator of the oxidation of lipids. Lipids exposed to Cu^++ form conjugated dienes that absorb ultraviolet light in the range of 230 to 235 nm. The lag phase of diene formation gives an indication of the amount of oxidation of the lipids. A lag phase longer than control samples indicate inhibition of the oxidation. Conjugated diene lay phase was determined using a Varian DMS200 spectrophotometer (fitted with a constant temperature, 5 cuvette sample changer) at 30° C. Twenty (20) μL of pooled serum were added to cuvettes containing 3.0 mL phosphate buffered saline, pH 7.5, and mixed. The absorbances of all cuvettes were measured, and the instrument baseline was set to zero using the lowest absorbing sample. Next, 100 μL of 1 mmol CuSO4 were added and immediately mixed. The absorbance of each cuvette was recorded at 2 min intervals for a period of 840 min. The data were captured and transferred to a Microsoft EXCEL® spreadsheet where the curves were smoothed and differentials obtained. Lag times were determined mathematically as minutes. Serum samples were pooled (N=5); data presented are the mean values of 2 determinations. Serum samples from treated rats were compared to serum samples from control rats that received no MDL compound.

[2] = Food consumption, body and liver weight in cholesterol-fed rabbits; assay type: in vivo, female New Zealand White rabbits; conditions: for body wt., percent of control / lw/bw (liver weight/body weight), percent of control: rabbit
Protocol: Five independent experiments were performed in the following manner. […] Female New Zealand White rabbits (Hazelton, ~2.0-2.3 kg) were fed 0.2% cholesterol enriched rabbit chow (Purina #5322) with or without 0.4% MDL compound (except, MDL 108,804 at 0.26% and MDL 103,491 repeated at 0.6%). The MDL compounds were solubilized in 100% ethanol. MDL 108,208 was not soluble in 100% ethanol, but it was soluble in diethyl ether:ethanol (3:2 by volume). The chow was sprayed with the MDL mixtures and allowed to dry overnight in a chemical fume hood. Control chow was sprayed with ethanol. Rabbits were fed 100 grams food per day for 7 days (0.6% MDL 103,491 were fed for 14 days); water was available ad libitum. On day 7, rabbits (fasted overnight) were bled (~2 mL) from marginal ear vein; 0.6% MDL 103,491 treated rabbits were tested on day 14. They were euthanized by carbon dioxide overdose. The total body and liver weights were recorded in grams. Food consumption was recorded as grams.cndot.day^-1 .cndot.rabbit^-1. Aliquots of fresh serum were used for clinical chemistries, lipoprotein cholesterol determination, thiobarbituric acid reactive substances (TBARS) and compound and metabolite concentrations in serum. Livers (~5 gram aliquots) were frozen at -20° C. for compound and metabolite concentration determination at a later time.

Structure (SMILES) | food (grams eaten per day per rat), percent of control ([1]; diet 0.1%) [%] | food (grams eaten per day per rat), percent of control ([1]; diet 0.3%) [%] | mortality at 96 h ([1]; diet 0.1%) [%] | mortality at 96 h ([1]; diet 0.3%) [%] | body wt., percent of control ([1]; diet 0.1%) [%] | lw/bw (liver weight/body weight), percent of control ([1]; diet 0.1%) [%] | body wt., percent of control ([1]; diet 0.3%) [%] | lw/bw (liver weight/body weight), percent of control ([1]; diet 0.3%) [%] | CONJ. DIENE (conjugated diene lag phase) (oxidation of lipids; diet 0.1%) [min] | food (grams eaten per day per rabbit), percent of control ([2]; diet 0.4%, 7 days) [%] | body wt., percent of control ([2]; diet 0.4%, 7 days) [%] | lw/bw (liver weight/body weight), percent of control ([2]; diet 0.4%, 7 days) [%] | CONJ. DIENE (conjugated diene lag phase) (oxidation of lipids; diet 0.3%) [min] | food (grams eaten per day per rabbit), percent of control ([2]; diet 0.6%, 14 days) [%] | body wt., percent of control ([2]; diet 0.6%, 14 days) [%] | lw/bw (liver weight/body weight), percent of control ([2]; diet 0.6%, 14 days) [%]
CC(=O)Oc1ccc(OC[Si](C)(C)c2ccccc2)cc1C(C)(C)C [MDL 105,443, 2-t-Butyl-4-[(dimethylphenylsilyl)methyloxy]phenol acetic acid ester] | 100 | 84 | 0 | 0 | 101 | 110 | 95 | 118 | 151 | 100 | 101 | 90 |  |  |  | 
CC(=O)Oc1c(C(C)(C)C)cc(OC[Si](C)(C)c2ccccc2)cc1C(C)(C)C [MDL 103,377, 2,6-Di-t-butyl-4-[(dimethylphenylsilyl)methyloxy]phenol acetic acid ester] |  | 82 |  | 0 |  |  | 97 | 105 |  |  |  |  |  |  |  | 
CC(C)(C)c1cc(OC[Si](C)(C)c2ccc(C(F)(F)F)cc2)cc(C(C)(C)C)c1O [MDL 105,975, 2,6-Di-t-butyl-4-[(dimethyl-4-trifluoromethylphenylsilyl)methyloxy]phenol] | 106 | 98 | 0 | 0 | 98 | 105 | 100 | 113 |  | 100 | 101 | 108 |  |  |  | 
CC(C)(C)c1cc(OC[Si](C)(c2ccccc2)c2ccccc2)cc(C(C)(C)C)c1O [MDL 104,599, 2,6-Di-t-butyl-4-[(diphenylmethylsilyl)methloxy]phenol] |  | 103 |  | 0 |  |  | 93 | 107 |  | 98 | 99 | 86 |  |  |  | 
COc1ccc([Si](C)(C)COc2ccc(O)c(C(C)(C)C)c2)cc1 [MDL 106,834, 2-t-Butyl-4-[(dimethyl-p-methoxylphenylsilyl)methyloxy]phenol] |  | 91 |  | 0 |  |  | 95 | 132 |  | 99 | 99 | 94 | 492 |  |  | 
CC(C)(C)c1cc(SC[Si](C)(C)c2ccccc2)cc(C(C)(C)C)c1OC(=O)CCC(=O)O [MDL 103,141, 2,6-Di-t-butyl-4-[(dimethylphenylsilyl)methylthio]phenol sucinic acid ester] |  | 87 |  | 0 |  |  | 91 | 96 |  |  |  |  |  |  |  | 
Cc1cc(OC[Si](C)(C)c2ccccc2)c(C)c(C)c1O [MDL 105,314, 2,3,6-Trimethyl-4-[(dimethylphenylsdilyl)methloxy]phenol] |  | 109 |  | 0 |  |  | 111 | 118 |  |  |  |  |  |  |  | 
CC(C)(C)c1cc(OC[Si](C)(C)c2ccccc2)ccc1O [MDL 103,491, 2-t-Butyl-4-[(dimethylphenylsilyl)methyloxy]phenol] | 92 | 89 | 0 | 0 | 95 | 106 | 100 | 130 | 168 | 100 | 100 | 89 |  | 80 | 95 | 96
CC(C)(C)c1cc(OC[Si](C)(C)c2ccccc2)c(C(C)(C)C)cc1O [MDL 104,962, 2,5-Di-t-butyl-4-[(dimethylphenylsilyl)methyloxy]phenol] |  | 74 |  | 0 |  |  | 95 | 103 |  | 69 | 97 | 71 | 320 |  |  | 
CC(C)(C)c1cc(OC[Si](C)(C)c2ccccc2)cc(C(C)(C)C)c1OC(=O)CCC(=O)O [MDL 103,076, 2,6-Di-t-butyl-4-[(dimethylphenylsilyl)methyloxy]phenol succinic acid ester] |  | 93 |  | 0 |  |  | 105 | 110 |  |  |  |  |  |  |  | 
CN(C)c1ccc([Si](C)(C)COc2cc(C(C)(C)C)c(O)c(C(C)(C)C)c2)cc1 [MDL 104,556, 2,6-Di-t-butyl-4-[(4-N,N-dimethylaminophenyldimethylsilyl)methyloxy]phenol] | 102 | 68 | 0 | 0 | 103 | 106 | 87 | 120 | 200 | 100 | 97 | 96 |  |  |  | 

From patent US5608095A, “Alkyl-4-silyl-phenols and esters thereof as antiatherosclerotic agents” (Hoechst Marion Roussel, Inc., priority 1996, dated 1997)
